Laboratory results: article PMC10825133, “Repurposing proteasome inhibitors for improved treatment of triple-negative breast cancer” (Cell Death Discovery, 2024)
Like-named read-outs stand apart in the source and are kept apart here.

Experiments:
Experiment in all cases: Resazurin-based cell viability assay, monotherapy drug screen
CAL-148 cells = tested on: CAL-148 cells; parameters: species or system human; AUC: unit not given beside the values; conditions: CAL-148; for AUC: area under the dose response curve, 24 h; for GRmax: drug efficacy at highest tested dose (<0 cytotoxic, 0 cytostatic, >0 partial growth inhibition)
BT-549 cells = tested on: BT-549 cells; parameters: species or system human; AUC: scale not given here; conditions: BT-549; for AUC: area under the dose response curve, 24 h; for GRmax: drug efficacy at highest tested dose (<0 cytotoxic, 0 cytostatic, >0 partial growth inhibition)
In short: (§1)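 Cells were seeded at the highest density (tested 1000-16000 cells/well) giving linear growth between days 1 and 3, keeping them in exponential phase over the ~52 h experiment. Viability was read after 4 h at 37 °C with 0.2 mg/ml resazurin added at 10% of medium volume; ex 560/em 615 nm.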

HCC1806 cells = tested on: HCC1806 cells; parameters: species or system human; AUC: scale not given here; conditions: HCC1806; for AUC: area under the dose response curve, 24 h; for GRmax: drug efficacy at highest tested dose (<0 cytotoxic, 0 cytostatic, >0 partial growth inhibition)
In short: as §1

MDA-MB-468 cells = tested on: MDA-MB-468 cells; parameters: species or system human; AUC: scale not given here; conditions: MDA-MB-468; for AUC: area under the dose response curve, 24 h
In short: as §1

HCC70 cells = tested on: HCC70 cells; parameters: species or system human; AUC: scale not given here; conditions: HCC70; for AUC: area under the dose response curve, 24 h; for GRmax: drug efficacy at highest tested dose (<0 cytotoxic, 0 cytostatic, >0 partial growth inhibition)
In short: as §1

MDA-MB-436 cells = tested on: MDA-MB-436 cells; parameters: species or system human; AUC: scale not given here; conditions: MDA-MB-436; for AUC: area under the dose response curve, 24 h; for GRmax: drug efficacy at highest tested dose (<0 cytotoxic, 0 cytostatic, >0 partial growth inhibition)
In short: as §1

HCC38 cells = tested on: HCC38 cells; parameters: species or system human; AUC: scale not given here; conditions: HCC38; for AUC: area under the dose response curve, 24 h; for GRmax: drug efficacy at highest tested dose (<0 cytotoxic, 0 cytostatic, >0 partial growth inhibition)
In short: as §1

MCF-10A cells = tested on: MCF-10A cells; parameters: species or system human; AUC: scale not given here; conditions: for AUC: area under the dose response curve, 24 h
In short: as §1

MDA-MB-453 cells = tested on: MDA-MB-453 cells; parameters: species or system human; AUC: scale not given here; conditions: MDA-MB-453; for AUC: area under the dose response curve, 24 h
In short: as §1

[1] = Homo sapiens, growth rate inhibition concentration at GR(c) = 0.5, 24 h, read-out: GR50 (the source's name)
[2] = Homo sapiens, 24 h drug treatment, read-out: IC50
[3] = 24 h drug treatment, read-out: IC50
[4] = growth rate inhibition concentration at GR(c) = 0.5, 24 h, read-out: GR50 (the source's name)
[5] = drug efficacy at highest tested dose (<0 cytotoxic, 0 cytostatic, >0 partial growth inhibition)

| SMILES | AUC (CAL-148 cells) | GRmax (CAL-148 cells) | IC50 (CAL-148 cells; [1]) | AUC (BT-549 cells) | GRmax (BT-549 cells) | IC50 (BT-549 cells; [1]) | AUC (HCC1806 cells) | GRmax (HCC1806 cells) | IC50 (HCC1806 cells; [1]) | IC50 (MDA-MB-468 cells; [2]) | IC50 (MDA-MB-468 cells; [1]) | AUC (MDA-MB-468 cells) | AUC (HCC70 cells) | GRmax (HCC70 cells) | AUC (MDA-MB-436 cells) | GRmax (MDA-MB-436 cells) | AUC (HCC38 cells) | GRmax (HCC38 cells) | AUC (MCF-10A cells) | AUC (MDA-MB-453 cells) | other results |
| --- | --- | --- | --- | --- | --- | --- | --- | --- | --- | --- | --- | --- | --- | --- | --- | --- | --- | --- | --- | --- | --- |
| CC(C)C[C@H](NC(=O)CNC(=O)c1cc(Cl)ccc1Cl)B(O)O [MLN 2238, MLN-2238] | 0.83 | 0.18 | 270 nM | 0.75 | 0.40 | 140 nM | 0.75 | 0.39 | 3300 nM | 240 nM | 55 nM | 0.67 | 0.78 | −0.36 | 0.88 | −0.78 | 0.59 | −0.99 | 0.72 | 0.81 | IC50 (HCC1806 cells; [2]): 3000 nM; IC50 (HCC70 cells; [2]): 2700 nM; IC50 (HCC70 cells; [1]): 740 nM; IC50 (MDA-MB-436 cells; [1]): 160 nM; IC50 (HCC38 cells; [2]): 110 nM; IC50 (HCC38 cells; [1]): 71 nM; IC50 (MCF-10A cells; [2]): 410 nM; IC50 (MCF-10A cells; [1]): 76 nM; IC50 (MDA-MB-453 cells; [2]): 4300 nM; IC50 (MDA-MB-453 cells; [1]): 640 nM |
| CC(C)C[C@H](NC(=O)CNC(=O)c1cc(Cl)ccc1Cl)B1OC(=O)C(CC(=O)O)(CC(=O)O)O1 [MLN 9708, MLN-9708] | 0.88 | 0.40 | 500 nM | 0.80 | 0.43 | 840 nM | 0.79 | 0.47 | 4300 nM | 800 nM | 100 nM | 0.72 | 0.82 | −0.34 | 0.86 | −0.82 | 0.59 | −0.99 | 0.72 | 0.88 | IC50 (HCC70 cells; [2]): 4800 nM; IC50 (HCC70 cells; [1]): 1200 nM; IC50 (MDA-MB-436 cells; [1]): 110 nM; IC50 (HCC38 cells; [2]): 130 nM; IC50 (HCC38 cells; [1]): 69 nM; IC50 (MCF-10A cells; [2]): 380 nM; IC50 (MCF-10A cells; [1]): 70 nM; IC50 (MDA-MB-453 cells; [1]): 1800 nM |
| [NH2][Pt]1([NH2])[O]CC(=O)[O]1 [Nedaplatin] | 0.78 | −0.93 | – | 0.66 | −0.02 | – | 0.66 | −0.38 | – | – | – | 0.61 | 0.50 | −0.83 | 0.76 | 0.22 | 0.62 | −0.58 | 0.57 | 0.86 | IC50 (CAL-148 cells; [3]): 320 nM; IC50 (CAL-148 cells; [4]): 210 nM; IC50 (BT-549 cells; [3]): 150 nM; IC50 (BT-549 cells; [4]): 81 nM; IC50 (HCC1806 cells; [3]): 150 nM; IC50 (HCC1806 cells; [4]): 120 nM; IC50 (MDA-MB-468 cells; [3]): 67 nM; GRmax (MDA-MB-468 cells; [5]): −0.38; IC50 (HCC70 cells; [3]): 46 nM; IC50 (HCC70 cells; [4]): 300 nM; IC50 (MDA-MB-436 cells; [3]): 230 nM; IC50 (MDA-MB-436 cells; [4]): 130 nM; IC50 (HCC38 cells; [3]): 93 nM; IC50 (HCC38 cells; [4]): 54 nM; IC50 (MCF-10A cells; [3]): 75 nM; GRmax (MCF-10A cells; [5]): −0.40; IC50 (MCF-10A cells; [4]): 74 nM; GRmax (MDA-MB-453 cells; [5]): 0.34; IC50 (MDA-MB-453 cells; [4]): 410 nM |
| COC[C@H](NC(=O)c1cnc(C)s1)C(=O)N[C@@H](COC)C(=O)N[C@@H](Cc1ccccc1)C(=O)[C@@]1(C)CO1 [Oprozomib] | 0.90 | 0.14 | 1100 nM | 0.81 | 0.38 | 940 nM | 0.85 | 0.42 | 6000 nM | 3200 nM | 390 nM | 0.76 | 0.89 | −0.10 | 0.84 | −0.93 | 0.73 | −0.98 | 0.79 | 0.84 | IC50 (HCC1806 cells; [2]): 6000 nM; IC50 (HCC70 cells; [2]): 7600 nM; IC50 (HCC70 cells; [1]): 3700 nM; IC50 (MDA-MB-436 cells; [1]): 75 nM; IC50 (HCC38 cells; [2]): 680 nM; IC50 (HCC38 cells; [1]): 330 nM; IC50 (MCF-10A cells; [2]): 2000 nM; IC50 (MCF-10A cells; [1]): 360 nM; IC50 (MDA-MB-453 cells; [1]): 3500 nM |
